From patent US20250320213A1, “Nitrogen-Containing Heterocyclic Compounds” (Pfizer Inc., priority 2024, published 2025)
pEC50: −log10 of the molar value.

The compounds below were run against T1, STAT6 (Homo sapiens, UniProt P42226) (assay: STAT6 Reporter Luciferase Assay (IL-13 stimulated HaCaT keratinocyte NanoLuc reporter cells)). Conditions: IL-13 stimulated HaCaT STAT6 NanoLuc reporter cells; read-out: Reporter EC50.
T1 construct: stably transfected HaCaT keratinocyte cell line, which expresses NanoLuc luciferase reporter gene under the transcriptional control of the STAT6 responsive promoter; endogenous in cells; host or cells: HaCaT keratinocyte reporter cell line (stably transfected with a NanoLuc reporter)
T1 sequence (P42226 1-847): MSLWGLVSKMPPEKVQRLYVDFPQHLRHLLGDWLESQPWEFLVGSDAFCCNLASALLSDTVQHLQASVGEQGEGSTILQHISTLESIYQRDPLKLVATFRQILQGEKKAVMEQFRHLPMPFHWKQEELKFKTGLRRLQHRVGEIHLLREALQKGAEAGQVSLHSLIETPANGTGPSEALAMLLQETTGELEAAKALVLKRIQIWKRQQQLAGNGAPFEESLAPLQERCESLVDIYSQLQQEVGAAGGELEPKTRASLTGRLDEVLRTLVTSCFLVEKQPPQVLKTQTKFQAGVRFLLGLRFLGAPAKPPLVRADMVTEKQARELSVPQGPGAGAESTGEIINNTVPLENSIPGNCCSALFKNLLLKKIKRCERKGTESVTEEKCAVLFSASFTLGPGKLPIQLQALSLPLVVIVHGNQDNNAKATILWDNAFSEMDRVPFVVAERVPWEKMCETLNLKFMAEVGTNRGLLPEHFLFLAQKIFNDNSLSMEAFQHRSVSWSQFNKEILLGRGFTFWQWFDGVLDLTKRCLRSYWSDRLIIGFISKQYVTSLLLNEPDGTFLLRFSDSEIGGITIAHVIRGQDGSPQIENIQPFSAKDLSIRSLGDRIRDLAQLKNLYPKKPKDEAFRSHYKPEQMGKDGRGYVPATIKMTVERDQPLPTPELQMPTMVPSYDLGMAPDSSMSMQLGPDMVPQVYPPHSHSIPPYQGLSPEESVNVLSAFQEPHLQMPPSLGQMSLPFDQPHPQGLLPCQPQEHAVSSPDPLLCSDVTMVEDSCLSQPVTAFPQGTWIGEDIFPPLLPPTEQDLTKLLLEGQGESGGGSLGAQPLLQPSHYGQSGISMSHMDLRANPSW
Format: cell-based
How it was run: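 HaCaT IL-13Ra2-promoter NanoLuc reporter; cpd 2 h 37 °C in DMEM/2% HI FBS; IL-13 0.12 nM final, 4 h; Nano-Glo luminescence.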
Compound `Cc1cnn2c1CN(C(=O)c1ccc(N3CCc4c(c(C(=O)NCc5ccc(NC(=O)N(C)C)cc5)nn4C(C)C)C3)nc1)CC2` [Example 419, N-(4-(3,3-dimethylureido)benzyl)-1-isopropyl-5-(5-(3-methyl-4,5,6,7-tetrahydropyrazolo[1,5-a]pyrazine-5-carbonyl)pyridin-2-yl)-4,5,6,7-tetrahydro-1H-pyrazolo[4,3-c]pyridine-3-carboxamide] has a pEC50 of 7.36. Work on `Cc1cnc2c(c1)CN(C(=O)c1ccc(N3CCc4c(c(C(=O)NCc5ccc(NC(=O)N(C)C)cc5)nn4C(C)C)C3)nc1)CC2` [Example 410, N-(4-(3,3-dimethylureido)benzyl)-1-isopropyl-5-(5-(3-methyl-5,6,7,8-tetrahydro-1,6-naphthyridine-6-carbonyl)pyridin-2-yl)-4,5,6,7-tetrahydro-1H-pyrazolo[4,3-c]pyridine-3-carboxamide] yielded a pEC50 of 7.82. `CC(C)n1nc(C(=O)NCc2ccc(NC(=O)N(C)C)cc2)c2c1[C@@H](C)CN(c1ccc(C(=O)N3CCN4CCC[C@@H]4C3)cc1)C2` [Example 675, (S)-N-(4-(3,3-dimethylureido)benzyl)-1-isopropyl-7-methyl-5-(4-((R)-octahydropyrrolo[1,2-a]pyrazine-2-carbonyl)phenyl)-4,5,6,7-tetrahydro-1H-pyrazolo[4,3-c]pyridine-3-carboxamide] gave a pEC50 of 7.47. Compound `[2H]C([2H])([2H])N(C(=O)Nc1ccc(CNC(=O)c2nn(C(C)C)c3c2CN(c2ccc(C(=O)N(C)C)cc2)C[C@@H]3C)cc1)C([2H])([2H])[2H]` [Example 315, (S)-N-(4-(3,3-bis(methyl-d3)ureido)benzyl)-5-(4-(dimethylcarbamoyl)phenyl)-1-isopropyl-7-methyl-4,5,6,7-tetrahydro-1H-pyrazolo[4,3-c]pyridine-3-carboxamide] has a pEC50 of 8.70. In the case of `CCC(=O)N1CCN(C(=O)c2ccc(N3CCc4c(c(C(=O)NCc5ccc(NC(=O)N(C)C)cc5)nn4C(C)C)C3)nc2)CC1` [Example 196, N-(4-(3,3-dimethylureido)benzyl)-1-isopropyl-5-(5-(4-propionylpiperazine-1-carbonyl)pyridin-2-yl)-4,5,6,7-tetrahydro-1H-pyrazolo[4,3-c]pyridine-3-carboxamide], the pEC50 was 7.05. `Cc1cccc2c1CN(C(=O)c1ccc(N3CCc4c(c(C(=O)NCc5ccc(NC(=O)N(C)C)cc5)nn4C(C)C)C3)nc1)C2` [Example 441, N-(4-(3,3-dimethylureido)benzyl)-1-isopropyl-5-(5-(4-methylisoindoline-2-carbonyl)pyridin-2-yl)-4,5,6,7-tetrahydro-1H-pyrazolo[4,3-c]pyridine-3-carboxamide] was tested, and the pEC50 was 8.70. In the case of `Cc1ncc2n1CCN(C(=O)c1ccc(N3CCc4c(c(C(=O)NCc5ccc(NC(=O)N(C)C)cc5)nn4C(C)C)C3)nc1)C2` [Example 382, N-(4-(3,3-dimethylureido)benzyl)-1-isopropyl-5-(5-(3-methyl-5,6,7,8-tetrahydroimidazo[1,5-a]pyrazine-7-carbonyl)pyridin-2-yl)-4,5,6,7-tetrahydro-1H-pyrazolo[4,3-c]pyridine-3-carboxamide], the pEC50 was 6.86. `CC(C)n1nc(C(=O)NCc2ccc(NC(=O)N(C)C)cc2)c2c1CCN(c1ccc(C(=O)N3CCn4c(cccc4=O)C3)cn1)C2` [Example 439, N-(4-(3,3-dimethylureido)benzyl)-1-isopropyl-5-(5-(6-oxo-1,3,4,6-tetrahydro-2H-pyrido[1,2-a]pyrazine-2-carbonyl)pyridin-2-yl)-4,5,6,7-tetrahydro-1H-pyrazolo[4,3-c]pyridine-3-carboxamide] showed a pEC50 of 7.06. In the case of `CC(C)n1nc(C(=O)NCc2ccc(NC(=O)N3CC4(CN(C)C4)C3)cc2)c2c1[C@@H](C)CN(c1ccc(C(=O)N(C)C)cc1)C2` [Example 751, (S)-5-(4-(dimethylcarbamoyl)phenyl)-1-isopropyl-7-methyl-N-(4-(6-methyl-2,6-diazaspiro[3.3]heptane-2-carboxamido)benzyl)-4,5,6,7-tetrahydro-1H-pyrazolo[4,3-c]pyridine-3-carboxamide], the pEC50 was 8.05. With `CC(C)n1nc(C(=O)NCc2ccc(NC(=O)N(C)C)cc2)c2c1CCN(c1ccc(C(=O)N3CCc4c(cnn4C)C3)cn1)C2` [Example 416, N-(4-(3,3-dimethylureido)benzyl)-1-isopropyl-5-(5-(1-methyl-4,5,6,7-tetrahydro-1H-pyrazolo[4,3-c]pyridine-5-carbonyl)pyridin-2-yl)-4,5,6,7-tetrahydro-1H-pyrazolo[4,3-c]pyridine-3-carboxamide] the pEC50 was 7.54. `CC(C)n1nc(C(=O)NCc2ccc(NC(=O)N3CCC4(CC3)CN(C)C4)cc2)c2c1[C@@H](C)CN(c1ccc(C(=O)N(C)C)cc1)C2` [Example 742, (S)-5-(4-(dimethylcarbamoyl)phenyl)-1-isopropyl-7-methyl-N-(4-(2-methyl-2,7-diazaspiro[3.5]nonane-7-carboxamido)benzyl)-4,5,6,7-tetrahydro-1H-pyrazolo[4,3-c]pyridine-3-carboxamide] showed a pEC50 of 9.00. In the case of `CC(C)n1nc(C(=O)NCc2ccc(NC(=O)N(C)C)cc2)c2c1CCN(c1ccc(C(=O)N3CCCOCC3)cn1)C2` [Example 195, 5-(5-(1,4-oxazepane-4-carbonyl)pyridin-2-yl)-N-(4-(3,3-dimethylureido)benzyl)-1-isopropyl-4,5,6,7-tetrahydro-1H-pyrazolo[4,3-c]pyridine-3-carboxamide], the pEC50 was 6.79. `CC(C)n1nc(C(=O)NCc2ccc(NC(=O)N(C)C)cc2)c2c1CCN(c1ccc(C(=O)N3CCNC(=O)C3)cn1)C2` [Example 223, N-(4-(3,3-dimethylureido)benzyl)-1-isopropyl-5-(5-(3-oxopiperazine-1-carbonyl)pyridin-2-yl)-4,5,6,7-tetrahydro-1H-pyrazolo[4,3-c]pyridine-3-carboxamide] gave a pEC50 of 6.70. `CC(=O)N1CCN(C(=O)c2ccc(N3CCc4c(c(C(=O)NCc5ccc(NC(=O)N(C)C)cc5)nn4C(C)C)C3)nc2)CC1` [Example 224, 5-(5-(4-acetylpiperazine-1-carbonyl)pyridin-2-yl)-N-(4-(3,3-dimethylureido)benzyl)-1-isopropyl-4,5,6,7-tetrahydro-1H-pyrazolo[4,3-c]pyridine-3-carboxamide] showed a pEC50 of 6.79. Work on `CC(C)n1nc(C(=O)NCc2ccc(NC(=O)N(C)C)cc2)c2c1CCN(c1ccc(C(=O)N3Cc4ccnn4C(C)C3)cn1)C2` (stereo not shown) [Example 424, N-(4-(3,3-dimethylureido)benzyl)-1-isopropyl-5-(5-(7-methyl-4,5,6,7-tetrahydropyrazolo[1,5-a]pyrazine-5-carbonyl)pyridin-2-yl)-4,5,6,7-tetrahydro-1H-pyrazolo[4,3-c]pyridine-3-carboxamide] yielded a pEC50 of 7.34. With `CC(C)n1nc(C(=O)NCc2ccc(NC(=O)N(C)C)cc2)c2c1CCN(c1ccc(C(=O)N3CCNC(=O)CC3)cn1)C2` [Example 214, N-(4-(3,3-dimethylureido)benzyl)-1-isopropyl-5-(5-(5-oxo-1,4-diazepane-1-carbonyl)pyridin-2-yl)-4,5,6,7-tetrahydro-1H-pyrazolo[4,3-c]pyridine-3-carboxamide] the pEC50 was 6.30. With `CC(C)n1nc(C(=O)NCc2ccc(NC(=O)N(C)C)cc2)c2c1CCN(c1ccc(C(=O)N3CCc4scnc4C3)cn1)C2` [Example 403, N-(4-(3,3-dimethylureido)benzyl)-1-isopropyl-5-(5-(4,5,6,7-tetrahydrothiazolo[4,5-c]pyridine-5-carbonyl)pyridin-2-yl)-4,5,6,7-tetrahydro-1H-pyrazolo[4,3-c]pyridine-3-carboxamide] the pEC50 was 7.92. `CC(C)n1nc(C(=O)NCc2ccc(NC(=O)N3CCN(C)CC3)cc2)c2c1C(C(F)(F)F)CN(c1ccc(C(=O)N(C)C)cc1)C2` (racemic) [Example 703, rac-(R)-5-(4-(dimethylcarbamoyl)phenyl)-1-isopropyl-N-(4-(4-methylpiperazine-1-carboxamido)benzyl)-7-(trifluoromethyl)-4,5,6,7-tetrahydro-1H-pyrazolo[4,3-c]pyridine-3-carboxamide] was tested, and the pEC50 was 9.00. `COCCC1(N)CCN(C(=O)Nc2ccc(CNC(=O)c3nn(C(C)C)c4c3CN(c3ccc(C(=O)N(C)C)cc3)C[C@@H]4C)cc2)C1` (single isomer, unassigned) [Example 671, (S)-N-(4-((R*)-3-amino-3-(2-methoxyethyl)pyrrolidine-1-carboxamido)benzyl)-5-(4-(dimethylcarbamoyl)phenyl)-1-isopropyl-7-methyl-4,5,6,7-tetrahydro-1H-pyrazolo[4,3-c]pyridine-3-carboxamide] gave a pEC50 of 8.52.
